Assay results published in a melting point compilation (Tetko et al.; mined from patent text by program, amines drawn as free bases though some values may be those of a salt).

Row | Compound | melting point
1 | Cc1cccc(-c2[nH]c(C(C)C)nc2-c2ccc(F)c(-c3ccc(C(=O)NN4CCOCC4)cc3)c2)n1 | 153 to 155 °C
2 | COc1ccc(-c2cc(=O)c3c(OCC4=COC(C)(C)O4)cc(OCC4=COC(C)(C)O4)cc3o2)cc1O | 160 °C
3 | COc1ccc2c(c1)C(CCC(C)C)(C(F)(F)F)OCC(=O)N2 (stereo not given) | 123 to 130 °C
4 | O=C(O)CC(=O)Oc1cccc(-c2cn3c(n2)sc2ccccc23)c1 | 159 to 161 °C
5 | CCOc1cc2c(Nc3ccc(OC)cc3)c(C#N)cnc2nc1C | 190 to 192 °C
6 | COC(=O)C(C)Oc1ncn(-c2ccc(Cl)cc2Cl)n1 (stereo not given) | 74 to 75 °C
7 | COc1ccc2ccccc2c1-c1cc2c(c(-c3ccccc3)c1P(=O)(c1ccccc1)c1ccccc1)COC2 | 129 to 131 °C
8 | CC(=O)OCCc1ccc2c(c1)Cc1ccccc1O2 | 62 to 64 °C
9 | CC(=O)Nc1ccc(S(=O)(=O)NC(=N)c2cnccn2)cc1 | 270 to 274 °C
10 | O=c1c2c[nH]c3ccccc3c-2nn1-c1ccc(O)cc1 | 294 to 296 °C
11 | C[C@@H]1CN(CC=CC(=O)Nc2cc3c(Nc4ccc(F)c(Cl)c4)ncnc3cc2O[C@@H]2CCOC2)CC(=O)O1 | 230 °C
12 | NC1CCN(c2nc(Nc3ccc(F)cc3F)c(C(=O)O)cc2F)C1 (stereo not given) | 249 to 250 °C
13 | CC(C)OC(=O)N1CCC(c2ccc3nc(-c4ccc(S(C)(=O)=O)cc4F)sc3c2)CC1 | 163 to 166 °C
14 | O=C(O)CNC(=O)c1nnc2ccc(NCCCN3CCC(OC(c4ccccc4)c4ccccc4)CC3)nn12 | 182 to 184 °C
15 | O=[N+]([O-])c1ccc(C(O)c2ccccn2)c(OCC(F)(F)F)c1 (stereo not given) | 119 to 123 °C
16 | CC1(C)Oc2ccc(C#N)cc2C(OC(=O)C2CCCN2S(=O)(=O)c2cccc([N+](=O)[O-])c2)C1Br (stereo not given) | 171 to 174 °C
17 | N#CC(O)C(Cc1ccccc1)N1C(=O)c2ccccc2C1=O (stereo not given) | 128 to 132 °C
18 | COc1ccsc1S(=O)(=O)Nc1nc2c(OC)cnc(OC)n2n1 | 227 to 228 °C
19 | CCOC(=O)c1ccc(NC(=O)Oc2ccccc2)cc1 | 156 to 162 °C
20 | NC1=NN(c2ccc3ccccc3c2)CC1 | 190 to 191 °C
21 | O=C(O)CCCCCCCCn1nc(-c2ccccc2)c(-c2ccccc2)n1 | 84 to 85 °C
22 | CCOC(=O)c1cccc(NC(=O)NCC(=O)O)c1 | 174 °C
23 | CCC(Cc1ccccc1)(C(=O)c1ccc(N(C)C)cc1)N(C)C (stereo not given) | 77 to 80 °C
24 | O=[N+]([O-])c1ccc(F)c(-c2ccncc2)c1F | 110 to 112 °C
25 | CCc1nc2c(C)cc(C)nc2n1-c1ccc(CC(C)NC(=O)NS(=O)(=O)c2ccc(C)cc2)cc1 (stereo not given) | 128 °C

Row | Compound | melting point
26 | CCCC(Oc1cc(OC)ccc1C(=O)c1ccc(OCc2nc(-c3ccccc3)oc2C)cc1)C(=O)O (stereo not given) | 139 to 140 °C
27 | CS(=O)c1ccc(-n2cnc3ccc(-c4nnc(CCc5cccc(C#N)c5)o4)cc32)cc1 (stereo not given) | 194 to 195 °C
28 | C#Cc1c(OC)nc(C)nc1C(F)(F)F | 77 °C
29 | Nc1nc2ccccc2c2c1ncn2CCOCc1ccccn1 | 196 to 198 °C
30 | Nc1cc(Br)cnc1CCCCNc1ncc(Cc2ccc(F)cc2)c(=O)[nH]1 | 146 to 148 °C
31 | N=C(NO)c1ccc(-c2ccc(-c3ccc(C(=N)NO)o3)cc2)cc1 | 229 to 230 °C
32 | COC(=O)c1sc(C(=O)OC)c([N+](=O)[O-])c1OC | 80 to 82 °C
33 | COc1ccc2c(c1)N(CCNC(C)=O)CCO2 | 107 to 108 °C
34 | COC(=O)NNC(=O)C(F)(F)F | 105 °C
35 | OCc1cnoc1-c1ccc(F)c(Br)c1 | 134 to 135 °C
36 | CN1CCOc2ccc(S(=O)(=O)n3c(Cc4ccc(C(=O)O)cc4)cc4c(Cl)cccc43)cc21 | 236 °C
37 | COc1cc(C=CC(=O)C=Cc2cc(OC)cc(OC)c2)cc(OC)c1 | 124 to 126 °C
38 | CCN1C(=O)C(C)(C)C(=O)N(C)c2cc(CN(CCn3ccc4oc(C)cc4c3=O)Cc3cncnc3)ccc21 | 146 to 148 °C
39 | CCOC(=O)C(CC(=O)c1cccc(C(F)(F)F)c1)(NC(C)=O)C(=O)OCC | 91 to 92 °C
40 | N[C@@H](Cc1ccc(C(F)(F)F)cc1)[C@H](O)c1ccc(F)c(F)c1 (racemic) | 99 to 100 °C
41 | CCCc1[nH]c2cc(C(N)=O)ccc2c1C(=O)C=C(C)C | 179 to 181 °C
42 | CCC(CC)N1COCc2c1cc(C)nc2Oc1c(C)cc(C)cc1C | 112 to 114 °C
43 | COC(=O)c1cccc(COc2cccc(OCc3ccc4ccccc4n3)c2)c1 | 93 to 94 °C
44 | CCc1nc(N)nc(NC(CC)COCc2ccc(F)cc2)n1 (stereo not given) | 96 °C
45 | Cc1ccc2c(c1)c(Cc1nc3c(F)c(F)cc(F)c3s1)cn2CC(=O)O | 131 to 133 °C
46 | Cc1oc(C=Cc2ccc(Cl)cc2)nc1C(=O)O | 244 to 245 °C
47 | CC(C)(C)OC(=O)NCC12CCC1CNC2 (stereo not given) | 83 to 86 °C
48 | Cc1nc2n(n1)C(N)(c1ccccc1)c1cc(Cl)ccc1-2 (stereo not given) | 173 to 175 °C
49 | O=C(O)c1c(I)c(I)c(C(=O)O)c(I)c1I | 205 to 206 °C
50 | COc1ccnc(CCc2nc3cc(-c4ccc(S(=O)(=O)N(C)C)cc4)cnc3[nH]2)c1 | 217 to 218 °C

Row | Compound | melting point
51 | O=C(NCc1ccc(Cl)cc1)c1cnc2c(F)cc(-c3nccs3)cc2c1O | 296 to 298 °C
52 | O=C(O)CCC1CC(O)C(=O)N1 (stereo not given) | 129 to 132 °C
53 | Cc1cc(Br)cnc1CCCCN=C(NCCCc1c[nH]cn1)NC(=O)c1ccccc1 | 126 to 128 °C
54 | Cn1ccc(Nc2n[nH]c3ccc(-c4ncccc4Cl)cc23)n1 | 190 to 191 °C
55 | NC(C(=O)O)c1ccc(C(=O)O)cc1F (stereo not given) | 250 to 255 °C
56 | Cn1nc(C(F)(F)F)c(C(=O)Nc2ccccc2)c1-c1ccccc1O | 191 °C
57 | COC(=O)C[C@@H]1Nc2ccc(NC(=O)OC(C)(C)C)cc2CNC1=O | 167 to 169 °C
58 | Cc1ccc2c(c1)C(C(=O)Nc1c(C(C)C)cc(SC#N)cc1C(C)C)c1ccccc1CO2 (stereo not given) | 146 °C
59 | CCOC(=O)c1c(O)c2ccsc2n(Cc2ccccc2)c1=O | 146 °C
60 | COCC1CN(c2ccc3cc(OCCC#N)ccc3c2)C(=O)O1 (stereo not given) | 110 to 112 °C
61 | CCOC(=O)c1ccc(C(C)=Cc2ccc3ccccc3c2)cc1 | 96 °C
62 | CC(=CN(C)C)C(=O)c1cccc(C(F)(F)F)c1 | 53 to 55 °C
63 | COc1cc(CCO)cc(OC)c1-c1ccc(C[C@H](NC(=O)c2c(Cl)cccc2Cl)C(=O)OC(C)(C)C)cc1 | 96 to 98 °C
64 | CC(=O)Nc1c(C(O)(C(F)(F)F)C(F)(F)F)cc(Cl)c2ccccc12 | 161 to 162 °C
65 | Cn1ccnc1C(=O)c1[nH]c2ccc(Cl)cc2c1CC(=O)O | 230 to 233 °C
66 | O=S(=O)(Oc1ccc(Cl)c2cccnc12)C(F)(F)F | 80 to 83 °C
67 | Nc1c(C=O)cc(-n2cnnc2)cc1C(F)(F)F | 234 to 236 °C
68 | CC(C)(C)C1(O)CCCCC1 | 49 to 50 °C
69 | Fc1ccc(-n2ccc3cc(-c4nnn[nH]4)ccc32)cc1 | 224 to 225 °C
70 | CSc1c2n(c3ccccc13)CCC2N(O)C(N)=O (stereo not given) | 178 °C
71 | CC(C(=O)NCC(F)(F)C(F)(F)F)C(=O)NC1C(=O)Nc2cc(F)ccc2OC1C (stereo not given) | 215 to 216 °C
72 | COc1cc(OC)c2c(=O)[nH]c(-c3ccc(OC)c(-c4ccc(S(C)=O)cc4)n3)nc2c1 (stereo not given) | 266 to 267 °C
73 | CC(C)(C)c1cc(C=C2SC(=S)N(C3CC3)C2=O)cc(C(C)(C)C)c1O | 158 to 168 °C
74 | CCN(CC(C)(C)C)c1nc2c(cc1CN(Cc1cc(C(F)(F)F)cc(C(F)(F)F)c1)c1nnn(C)n1)c(C)nn2C | 72 to 73 °C
75 | COC(=O)c1[nH]c2c(C)ccc(C)c2c1S(C)(=O)=O | 163 to 164 °C

Row | Compound | melting point
76 | O=C1NCCn2c1cc1c2CCCC1 | 207 to 209 °C
77 | COc1cc2c(c(Cl)c1Cl)C(=O)c1ccccc1-2 | 268 to 270 °C
78 | c1cnc(N2CCN(Cc3ccc4c(c3)Cc3c(-c5ccsc5)n[nH]c3-4)CC2)nc1 | 245 to 247 °C
79 | O=C(O)c1ccc(C#Cc2ccc(OCC(O)CO)c(C34CC5CC(CC(C5)C3)C4)c2)cc1 (stereo not given) | 300 to 302 °C
80 | COC(=O)NC(CCc1ccccc1)C(=O)O (stereo not given) | 108 to 110 °C
81 | O=C1CCC(c2ccc(NC3=NCCS3)cc2)=NN1 | 217 to 218 °C
82 | COCCOc1ccc(/C=C/C(=O)O)c(OC2CCCCC2)c1 | 102 to 114 °C
83 | CCCN(CCC)C(N)=C(C#N)C#N | 100 to 105 °C
84 | O=S(=O)(Nc1ccccc1)c1cccc(Br)c1 | 98 to 100 °C
85 | CC#CCOc1ccc(S(=O)(=O)N(C)C(CCCSc2ccc(Cl)cc2)(NC)C(=O)O)cc1 (stereo not given) | 143 to 145 °C
86 | OCc1c(CN2CCN(c3ccc(Cl)cc3Cl)CC2)nc2ccc(Cl)cn12 | 165 to 166 °C
87 | CN(C)c1cc(Br)cc(Sc2ccc([N+](=O)[O-])cc2)c1 | 102 to 104 °C
88 | Cc1nc2c3c(ccn2c1C)[C@@H](O)[C@@](C)(O)[C@@H](c1ccccc1)N3 | 180 °C
89 | CCCCN1C(=O)c2cnc(-c3ccccc3)nc2N(C(=O)CCl)c2ccccc21 | 139 to 140 °C
90 | CCOC(=O)c1ncn2c(-c3ccccc3)ccnc12 | 200 to 204 °C
91 | CCOS(=O)(=O)c1ccc(-c2ccc(CCl)cc2)cc1 | 112 to 116 °C
92 | COC(=S)c1cccc2nc(C)n(Cc3ccc(-c4ccccc4-c4nc(=O)o[nH]4)cc3)c12 | 231 to 232 °C
93 | O=Cc1ccc([N+](=O)[O-])cn1 | 66 to 67 °C
94 | O=C(C1CCN(c2ccncc2)CC1)N1CCN(S(=O)(=O)c2ccc3ccccc3c2)C(Cc2ccccc2)C1 (stereo not given) | 186 to 188 °C
95 | NC(=O)CCSC(SCCC(=O)O)c1cccc(SCc2ccc3ccc(Cl)cc3n2)c1 (stereo not given) | 141 to 142 °C
96 | CC(C)n1nccc1-c1nn(-c2cccc(C(F)(F)F)c2)ccc1=O | 183 to 184 °C
97 | O=Cc1c[nH]c2c1ccc1c3cc(-c4ccc(OC(F)(F)F)cc4)ccc3[nH]c12 | > 250 °C
98 | O=C(Nc1ccccn1)Nc1cnns1 | 227 °C
99 | O=S(=O)(O)c1ccc(O)c(O)c1 | 254 to 255 °C
100 | N#Cc1cc2c(Oc3ccc(Cl)cc3)cncc2s1 | 140 to 142 °C
